Data reported in ChEMBL document CHEMBL1134404, “Bisubstrate analogue inhibitors of 6-hydroxymethyl-7,8-dihydropterin pyrophosphokinase: synthesis and biochemical and crystallographic studies” (J Med Chem, 2001).

Test: Compound was tested for the binding affinity towards HPPK Receptor without Mg 2
Set-up: species or system Escherichia coli

Kd: 1930 nM
SMILES: Nc1nc2ncc(COP(=O)(O)OP(=O)(O)OP(=O)(O)OP(=O)(O)OC[C@H]3O[C@@H](n4cnc5c(N)ncnc54)[C@H](O)[C@@H]3O)nc2c(=O)[nH]1
